Data as given in publication PMC12018048, “Intranasal kisspeptin administration rapidly stimulates gonadotropin release in humans” (eBioMedicine, 2025).

Test system: plasma LH
Assay: Intranasal kisspeptin-54, plasma LH in adult C57BL/6J male mice
Format: in vivo, mouse
Conditions: intranasal, 25 min post administration, N = 2
Method: Saline (placebo) or kisspeptin-54 were intranasally administered using a customised and unsharpened 2 mm long and 0.3 mm wide hypodermic needle (BD PrecisionGlide™; 30G; ref. 305106). Male mice were restrained and a single volume of 30 μL of the solution was delivered in one randomly chosen nostril with either 0.9% saline or different concentrations of kisspeptin-54 (1, 3, 12.8, 30, or 50 nM; equivalent to 0.001–0.05 nmol/kg). The protocol involved N = 5 mice per group, except concentrations 12.8 nM where N = 6 and 30 nM where N = 7. […] LH levels were assessed using a tail-tip serial blood sampling as previously reported.[64]^,[65] Briefly, samples containing 4 μL of whole blood were collected every 10 min over a 70-min-long period from each animal. The first sampling point was taken as baseline LH level (−5 min), and saline or kisspeptin-54 were administered at timepoint 0 min. Whole blood was collected into Eppendorf tubes pre-loaded with 50 μL of 0.1 M phosphate-buffered saline (PBS)-0.05% Tween, thoroughly mixed, and snap-frozen with dry ice and stored at −80 °C.
LH levels were measured using an established in-house and ultrasensitive mouse LH ELISA method as previously validated.[66] A primary coating antibody (bovine LHβ subunit, 518B7; L. Sibley; University of California, UC Davis, RRID AB_2756886) was used at a 1:1000 dilution in combination with a detection primary antibody (rabbit LH antiserum, AFP240580Rb, RRID AB_2665533; NIDDK- NHPP) used at 1:10,000 dilution, and a secondary horseradish peroxidase-conjugated antibody (goat anti-rabbit; Vector Laboratories, PI-1000, RRID AB_2336198) used at 1:10,000 dilution. The assay standard curve used a mouse LH-RP (AFP5306A, A. F. Parlow, National Hormone and Peptide Program; supplied by Golden West BioSolutions, California, USA; catalogue # TLIA1053.03). The assay sensitivity of this LH ELISA was 0.04 ng/mL, intra-assay coefficient of variation 4.1%, and inter-assay coefficient of variation 7.3%.
Statistical analyses were performed using GraphPad Prism (version 9.4.1). Data are presented as mean ± SEM. Normality of the data was determined using the Shapiro–Wilk test. The analysis considered increment in LH levels when average post-administration values were above significance (P < 0.05) compared to basal levels (−5 min) using repeated measures two-way ANOVA with Fishers least significant difference (LSD) test. Integrated LH response to kisspeptin-54 administration as indicated using the area under the curve (AUC) analysis when all peaks were above baseline values. The difference in AUC between groups was compared by one-way ANOVA with Fisher’s LSD test. In all cases, P < 0.05 was considered statistically significant.

Substance: Dye-C-GTSLSPPPESSGSRQQPGLSAPHSRQIPAPQGAVLVQREKDLPNYNWNSFGLRF [kisspeptin-54-D2, Kisspeptin-54 labelled with a D2 fluorescent probe, developed by Cisbio Bioassays]
- Plasma LH response to the fluorescently tagged peptide: robust LH increase
